{
  "source": "patent US6706745B1",
  "about": "“Biphenylamidine derivatives” (Teijin Limited, priority 1997, dated 2004)",
  "key": {"[1]": {"target": "T1, human thrombin (Homo sapiens, UniProt P00734)", "T1 construct": "1 U/mL human thrombin", "test": "Determination of thrombin inhibiting activity, chromogenic substrate S-2238", "format": "biochemical", "settings": "substrate S-2238, 30 min incubation, A405, read-out: Thrombin inhibition activity IC50", "description": "(2) Determination of Thrombin Inhibiting Activity:\nTo 70 μL of the specimen serially diluted with water, 90 μL of 100 mM Tris buffer (pH 8.4), 20 μL of 50 mM Tris buffer (pH 8.4) containing 1 U/mL human thrombin, and 2 mM substrate (Daiichi Chemical S-2238) were added and incubated for 30 min., 50μL of 50% acetic acid was added, and the absorbance (A405) were determined. As, a blank, Tris buffer was added instead of thrombin while as a control, water is added instead of the specimen. The 50% inhibition activity (IC50) was determined as the indication of thrombin inhibiting activity."}, "[2]": {"test_system": "normal human plasma", "test": "Determination of anticoagulation activity (APTT)", "format": "biochemical", "settings": "concentration corresponding to 2-fold elongation of coagulation time", "description": "(3) Determination of Anticoagulation Activity (APTT):\nTo 100 μL of normal human plasma (Ci-Trol®) manufactured by DADE, 100 μL of the specimen was added, and incubated at 37° C. for 1 minute. To this solution, 100 μL of APTT reagent (manufactured by DADE) which was, retained at 37° C. was added, and after incubating at 37° C. for 2 minutes, 100 μL of 25 mM calcium chloride solution was added, and the coagulation time was determined using the coagulation measurement apparatus manufactured by AMELUNG. The coagulation time when physiological salt solution was added instead of the analyte is used as a control, the concentration of the specimen corresponding to the 2-fold elongation of this coagulation time (CT2) is calculated, and this value is used as,the indication of the anticoagulation activity."}, "[3]": {"target": "human FXa (Homo sapiens, UniProt P00742)", "sequence (P00742 235-488 limits assumed)": "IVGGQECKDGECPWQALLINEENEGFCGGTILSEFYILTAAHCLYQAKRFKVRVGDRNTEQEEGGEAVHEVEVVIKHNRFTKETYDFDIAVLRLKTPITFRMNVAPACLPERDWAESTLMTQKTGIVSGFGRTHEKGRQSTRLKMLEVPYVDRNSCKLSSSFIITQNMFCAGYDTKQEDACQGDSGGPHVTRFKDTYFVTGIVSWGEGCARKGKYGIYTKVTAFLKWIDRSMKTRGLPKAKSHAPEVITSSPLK", "sequence (P00742 41-179 partner limits assumed)": "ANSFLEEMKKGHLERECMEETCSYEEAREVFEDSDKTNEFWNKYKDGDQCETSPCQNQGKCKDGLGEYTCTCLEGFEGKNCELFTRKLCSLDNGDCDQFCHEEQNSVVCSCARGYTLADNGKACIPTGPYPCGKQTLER", "test": "Determination of inhibiting activity of activated blood coagulation factor X (FXa), chromogenic substrate S-2765", "format": "biochemical", "settings": "substrate S-2765, 30 min incubation, A405, read-out: Fxa inhibition activity IC50", "description": "(1) Determination of Inhibiting Activity of Activated Blood Coagulation Factor X (FXa):\nThe substance for analysis was dissolved in water or water wherein a suitable concentration of organic solvents (DMSO ethanol or .methanol) had been added, as a specimen. To 70 μL of the specimen serially diluted with water, 90 μL of 100 mM Tris buffer (pH 8.4), 20 μL of 50 mM Tris buffer (pH 8.4) containing 50 mU/mL human FXa, and 2 mM substrate (Daiichi Chemical S-2765) were added and incubated for 30 min., 50 μL of 50% acetic acid was added, and the absorbance (A405) were determined. As a blank, Tris buffer was added instead of FXa while, as a control, water was added instead of the specimen. The 50% inhibition activity (IC50) was determined as the indication of FXa inhibiting activity."}, "[4]": {"target": "T2, human acetylcholine esterase (Homo sapiens, UniProt P22303)", "T2 construct": "purchased Sigma C-5400", "T2 sequence (P22303 32-617 isoform P22303-2 limits assumed)": "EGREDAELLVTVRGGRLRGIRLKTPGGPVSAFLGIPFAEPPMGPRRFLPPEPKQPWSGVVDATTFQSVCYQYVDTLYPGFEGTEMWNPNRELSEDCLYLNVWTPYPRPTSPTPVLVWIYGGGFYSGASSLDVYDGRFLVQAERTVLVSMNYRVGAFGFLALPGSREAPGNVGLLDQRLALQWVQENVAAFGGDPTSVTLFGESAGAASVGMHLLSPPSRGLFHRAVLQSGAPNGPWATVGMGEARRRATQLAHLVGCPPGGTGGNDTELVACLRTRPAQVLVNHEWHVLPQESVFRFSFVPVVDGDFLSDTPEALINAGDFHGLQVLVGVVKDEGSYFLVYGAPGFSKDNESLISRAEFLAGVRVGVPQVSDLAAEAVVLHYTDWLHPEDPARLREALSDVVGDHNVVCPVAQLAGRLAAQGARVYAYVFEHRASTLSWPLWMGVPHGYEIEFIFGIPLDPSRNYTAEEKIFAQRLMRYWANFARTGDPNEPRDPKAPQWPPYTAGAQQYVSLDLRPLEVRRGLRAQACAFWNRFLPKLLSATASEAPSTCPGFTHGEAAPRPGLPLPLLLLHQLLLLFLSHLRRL", "test": "Determination of acetylcholine esterase (AChE) inhibiting activity", "format": "biochemical", "settings": "read-out: AChE inhibition activity IC50", "description": "(4) Determination of Acetylcholine Esterase (AChE) Inhibiting Activity\nThe substance for analysis was dissolved in distilled water as specimen. To 50 μL of the specimen serially diluted, 50 μL of enzyme solution, wherein human acetylcholine esterase (manufactured by Sigma, C-5400) had been dissolved in distilled water at 0.1 U/mL was added. To this solution, 50 μL of the solution which was prepared by dissolving 5,5′-dithiobis (manufactured by Nacarai Tesque, 141-01) in phosphate buffer (0.1M NaH2PO4—Na2HPO4, pH 7.0) at 0.5 mM is,added and mixed, and reacted with 50 μL of the solution wherein acetylthiocholine iodide (Wako Company, 017-09313) had been dissolved in phosphate buffer at 3 mM, at room temperature. As a control distilled water was added instead of the substance for analysis and the absorbance (A450) was determined over time. As a blank, phosphate buffer was added instead of the enzyme solution and the 50% inhibition activity (IC50),was determined."}, "[5]": {"test": "Determination of bioavailability (BA) in mouse", "format": "in vivo", "settings": "fasted male ICR mice; oral 10 mg/kg vs intravenous 3 mg/kg; from plasma AUC", "description": "(5) Determination of Bioavailability (BA):\nThe substance for analysis was dissolved in distilled water (for oral administration; 10 mg/kg) or physiological salt solution (for intravenous administration; 3 mg/kg) to prepare a solution for administration. This solution was administered to fasted ICR mice (male, 6 weeks aged), the whole blood was extracted from the heart under ether anesthesia at 5 min. (intravenous administration group only), 15 min., 30 min., 1 hr., 2 hr. and 4 hr. after the administration, and the plasma was separated by the centrifugation (3,500 rpm, 30 min., 4° C.) to produce the specimen (n=4). Using the above method for determining FXa inhibiting activity, the calibration curve for the substance for analysis was previously prepared and the concentration of the substance for analysis in the specimen was determined. The lower area of the concentration in plasma—time curve (AUC) was calculated and then the bioavailavility in the mouse (BA) was calculated according to the following formula: [formula]"}},
  "note": "Counter-ions that a name gives are not always drawn.",
  "data": [
    {"smiles": "N=C(N)c1cccc(-c2cc(CNCC3CCCCC3)cc(C(=O)O)c2)c1", "note": "[Example 73]", "values": [
      {"measurement": "IC50", "setting": "[1]", "result": "> 1", "unit": "mM"},
      {"measurement": "APTT CT2", "setting": "[2]", "result": 13, "unit": "µM"},
      {"measurement": "IC50", "setting": "[3]", "result": 1700, "unit": "nM"},
      {"measurement": "IC50", "setting": "[4]", "result": "> 250", "unit": "µM"}
    ]},
    {"smiles": "N=C(N)c1cccc(-c2cc(CNCC3CCN(CCO)CC3)cc(C(=O)O)c2)c1", "note": "[Example 72]", "values": [
      {"measurement": "IC50", "setting": "[1]", "result": "> 1", "unit": "mM"},
      {"measurement": "APTT CT2", "setting": "[2]", "result": 11, "unit": "µM"},
      {"measurement": "Mouse BA", "setting": "[5]", "result": 13, "unit": "%"},
      {"measurement": "IC50", "setting": "[3]", "result": 1200, "unit": "nM"},
      {"measurement": "IC50", "setting": "[4]", "result": "> 250", "unit": "µM"}
    ]},
    {"smiles": "CC(=N)N1CCC(COCc2cc(C(=O)O)cc(-c3cccc(C(=N)N)c3)c2)CC1", "note": "[Example 61, 3-(3-Amidinophenyl)-5-[(1-acetoimidoyl-4-piperidinyl)methoxymethyl]benzoic Acid.hydrochloride]", "values": [
      {"measurement": "IC50", "setting": "[1]", "result": "> 1", "unit": "mM"},
      {"measurement": "APTT CT2", "setting": "[2]", "result": 0.76, "unit": "µM"},
      {"measurement": "Mouse BA", "setting": "[5]", "result": 10, "unit": "%"},
      {"measurement": "IC50", "setting": "[3]", "result": 63, "unit": "nM"},
      {"measurement": "IC50", "setting": "[4]", "result": 49, "unit": "µM"}
    ]},
    {"smiles": "CC(=N)N1CCC(CNCc2cc(C(=O)O)cc(-c3cccc(C(=N)N)c3)c2)CC1", "note": "[Example 70]", "values": [
      {"measurement": "IC50", "setting": "[1]", "result": "> 1", "unit": "mM"},
      {"measurement": "APTT CT2", "setting": "[2]", "result": 2.0, "unit": "µM"},
      {"measurement": "Mouse BA", "setting": "[5]", "result": 11, "unit": "%"},
      {"measurement": "IC50", "setting": "[3]", "result": 190, "unit": "nM"},
      {"measurement": "IC50", "setting": "[4]", "result": 140, "unit": "µM"}
    ]},
    {"smiles": "CC(=N)N1CCC(CN(C)Cc2cc(C(=O)O)cc(-c3cccc(C(=N)N)c3)c2)CC1", "note": "[Example 74]", "values": [
      {"measurement": "IC50", "setting": "[1]", "result": "> 1", "unit": "mM"},
      {"measurement": "APTT CT2", "setting": "[2]", "result": 5.4, "unit": "µM"},
      {"measurement": "Mouse BA", "setting": "[5]", "result": 13, "unit": "%"},
      {"measurement": "IC50", "setting": "[3]", "result": 590, "unit": "nM"},
      {"measurement": "IC50", "setting": "[4]", "result": 150, "unit": "µM"}
    ]},
    {"smiles": "CC(=N)N1CCC(CN(CCO)Cc2cc(C(=O)O)cc(-c3cccc(C(=N)N)c3)c2)CC1", "note": "[Example 81]", "values": [
      {"measurement": "IC50", "setting": "[1]", "result": 0.82, "unit": "mM"},
      {"measurement": "APTT CT2", "setting": "[2]", "result": 2.8, "unit": "µM"},
      {"measurement": "Mouse BA", "setting": "[5]", "result": 7, "unit": "%"},
      {"measurement": "IC50", "setting": "[3]", "result": 210, "unit": "nM"},
      {"measurement": "IC50", "setting": "[4]", "result": 130, "unit": "µM"}
    ]},
    {"smiles": "CC(=N)N1CCC(COCc2cc(CCC(=O)O)cc(-c3cccc(C(=N)N)c3)c2)CC1", "note": "[Example 82]", "values": [
      {"measurement": "IC50", "setting": "[1]", "result": "> 1", "unit": "mM"},
      {"measurement": "APTT CT2", "setting": "[2]", "result": 1.9, "unit": "µM"},
      {"measurement": "Mouse BA", "setting": "[5]", "result": 11, "unit": "%"},
      {"measurement": "IC50", "setting": "[3]", "result": 130, "unit": "nM"},
      {"measurement": "IC50", "setting": "[4]", "result": 170, "unit": "µM"}
    ]}
  ]
}
